Data taken from ChEMBL document CHEMBL1148830, “Discovery and investigation of antiproliferative and apoptosis-inducing properties of new heterocyclic podophyllotoxin analogues accessible by a one-step multicomponent synthesis” (2007).
Activity calls are given as the source filed them. No cut-off for these calls is given here.

Experiments:
[1] = Antiproliferative activity against human MCF7/AZ cells assessed as cell viability at 5 uM after 48 hrs by MTT assay relative to control; type: functional; conditions: read-out: Activity
Jurkat [2] = assay: Induction of apoptosis in Jurkat cells assessed as cell viability at 5 uM after 48 hrs by flow cytometry Annexin-V/propidium iodide assay; type: functional; conditions: Homo sapiens, read-out: Activity
Jurkat [3] = assay: Antiproliferative activity against human Jurkat cells assessed as cell viability at 5 uM after 48 hrs by MTT assay; type: functional; conditions: read-out: Activity
HeLa [4] = assay: Antiproliferative activity against HeLa cells assessed as cell viability at 5 uM after 48 hrs by MTT assay relative to control; type: functional; conditions: Homo sapiens, read-out: Activity
Jurkat [5] = assay: Effect on apoptosis in Jurkat cells assessed as cleavage of procaspase 3 to active enzyme at 1 uM; type: functional, cell-based; conditions: Homo sapiens
Jurkat [6] = assay: Effect on apoptosis in Jurkat cells assessed as cleavage of PARP at 1 uM; type: functional, cell-based; conditions: Homo sapiens
Jurkat [7] = assay: Increase in caspase 3 activation in Jurkat cells at 1 uM; type: functional, cell-based; conditions: Homo sapiens
Jurkat [8] = assay: Effect on apoptosis in Jurkat cells assessed as cleavage of PARP at 5 uM; type: functional, cell-based; conditions: Homo sapiens
Jurkat [9] = assay: Induction of apoptosis in Jurkat cells after 24 hrs by flow cytometric Annexin-V/propidium iodide assay; type: functional, cell-based; conditions: Homo sapiens
Jurkat [10] = assay: Effect on apoptosis in Jurkat cells assessed as cleavage of procaspase 3 to active enzyme at 5 uM; type: functional, cell-based; conditions: Homo sapiens
Jurkat [11] = assay: Increase in caspase 3 activation in Jurkat cells at 5 uM; type: functional; conditions: for Activity: Homo sapiens
Lymphocyte = assay: Induction of apoptosis in human whole blood lymphocytes after 24 hrs by flow cytometric Annexin-V/propidium iodide assay; type: functional, cell-based
HeLa [12] = assay: Growth inhibition of HeLa cells after 48 hrs by MTT assay; type: functional; conditions: Homo sapiens
Jurkat [13] = assay: Effect on apoptosis in Jurkat cells assessed as DNA laddering after 24 hrs; type: functional, cell-based; conditions: Homo sapiens

SMILES | viability at 5 µM [1] | viability at 5 µM (Jurkat [2]) | viability at 5 µM (Jurkat [3]) | viability at 5 µM (HeLa [4]) | other results
COc1cc(C2C3=C(COC3=O)Nc3c2c(C)nn3C(C)C)cc(OC)c1OC (centres undefined) | 99% | 4% | 77% | 83% | 
COc1cc(C2C3=C(COC3=O)Nc3[nH]nc(C)c32)cc([N+](=O)[O-])c1O (centres undefined) | 89% | 5% | 90% | 78% | 
Cc1n[nH]c2c1C(c1ccccc1)C1=C(COC1=O)N2 (centres undefined) | 84% | 10% | 87% | 74% | 
CC[C@]1(O)C[C@@H]2CN(CCc3c([nH]c4ccccc34)[C@@](C(=O)OC)(c3cc4c(cc3OC)N(C)[C@H]3[C@@](O)(C(=O)OC)[C@H](OC(C)=O)[C@]5(CC)C=CCN6CC[C@]43[C@@H]65)C2)C1 |  |  |  |  | Activity (Jurkat [5]): Active; Activity (Jurkat [6]): Active; Activity (Jurkat [7]): Active
C=C(C)[C@@H]1CC=C(C2C3=C(COC3=O)Nc3[nH]nc(C)c32)CC1 (some centres undefined) | 91% | 14% | 89% | 95% | 
COc1cc([C@@H]2c3cc4c(cc3[C@H](O)[C@H]3COC(=O)[C@H]23)OCO4)cc(OC)c1OC [PODOFILOX] | 55% | 54% | 18% | 19% | Activity (Jurkat [8]): Active; Activity (Jurkat [9]): Active; Activity (Jurkat [10]): Active; Activity (Jurkat [11]): Active; Activity (Lymphocyte): inactive; GI50 (HeLa [12]): 0.02 µM
COc1cc(C2C3=C(COC3=O)Nc3[nH]nc(C)c32)cc(OC)c1OC (centres undefined) | 58% | 55% | 47% | 50% | Activity (Jurkat [8]): Active; Activity (Jurkat [9]): Active; Activity (Jurkat [10]): Active; Fold change (Jurkat [11]): 3; Activity (Lymphocyte): inactive; Activity (Jurkat [13]): Active; GI50 (HeLa [12]): 5 µM
Cc1n[nH]c2c1C(c1cccc(Br)c1)C1=C(COC1=O)N2 (centres undefined) | 63% | 58% | 68% | 51% | Activity (Jurkat [9]): Active; Fold change (Jurkat [11]): 3; Activity (Lymphocyte): inactive; GI50 (HeLa [12]): 5 µM
Cc1nc2ccccc2nc1C1C2=C(COC2=O)Nc2[nH]nc(C)c21 (centres undefined) | 100% | 11% | 97% | 72% | 
COc1ccc(C2C3=C(COC3=O)Nc3[nH]nc(C)c32)cc1OC (centres undefined) | 95% | 5% | 88% | 73% | 
Cc1n[nH]c2c1C(c1cccs1)C1=C(COC1=O)N2 (centres undefined) | 98% | 18% | 74% | 82% | 
COc1cc2c(c(OC)c1)C(c1cc(OC)c(OC)c(OC)c1)C1=C(COC1=O)N2 (centres undefined) | 43% | 55% | 55% | 55% | 
CSc1ccc(C2C3=C(COC3=O)Nc3[nH]nc(C)c32)cc1 (centres undefined) | 95% | 14% | 87% | 45% | 
Cc1n[nH]c2c1C(c1c(C)nn(-c3ccccc3)c1Cl)C1=C(COC1=O)N2 (centres undefined) | 100% | 6% | 94% | 58% | 
Cc1n[nH]c2c1C(c1c(C)nc3sccn13)C1=C(COC1=O)N2 (centres undefined) | 100% | 7% | 85% | 84% | Activity (Jurkat [8]): inactive
CCOc1c(Br)cc(C2C3=C(COC3=O)Nc3[nH]nc(C)c32)cc1OC (centres undefined) | 49% | 49% | 28% | 52% | Fold change (Jurkat [11]): 3; Activity (Lymphocyte): inactive; GI50 (HeLa [12]): 5 µM
Cc1n[nH]c2c1C(C)C1=C(COC1=O)N2 (centres undefined) | 97% | 5% | 78% | 70% | 
Cc1n[nH]c2c1C(c1ccc(Br)cc1)C1=C(COC1=O)N2 (centres undefined) | 92% | 10% | 90% | 62% | 
COc1cc2c(c(OC)c1OC)-c1ccc(OC)c(=O)cc1[C@@H](NC(C)=O)CC2 |  |  |  |  | Activity (Jurkat [11]): Active
Cc1n[nH]c2c1C(c1ccncc1)C1=C(COC1=O)N2 (centres undefined) | 100% | 4% | 92% | 94% | 

SMILES | viability at 5 µM [1] | viability at 5 µM (Jurkat [2]) | viability at 5 µM (Jurkat [3]) | viability at 5 µM (HeLa [4]) | other results
COc1ccc(C2C3=C(COC3=O)Nc3[nH]nc(C)c32)cc1 (centres undefined) | 82% | 11% | 94% | 73% | 
COc1cc(C2C3=C(COC3=O)Nc3c2c(C)nn3-c2ccc(C)cc2)cc(OC)c1OC (centres undefined) | 71% | 23% | 77% | 77% | 
COc1cc(C2C3=C(COC3=O)Nc3[nH]nc(C)c32)cc(Br)c1OC (centres undefined) | 47% | 56% | 29% | 16% | Fold change (Jurkat [11]): 3; Activity (Lymphocyte): inactive; GI50 (HeLa [12]): 0.75 µM
COc1cc(C2C3=C(COC3=O)Nc3cc4c(cc32)OCO4)cc(OC)c1OC (centres undefined) | 52% | 55% | 54% | 54% | GI50 (HeLa [12]): 6 µM
COc1cc(C2C3=C(COC3=O)Nc3c2c(C)nn3C)cc(OC)c1OC (centres undefined) | 98% | 5% | 79% | 55% | 
Cc1n[nH]c2c1C(c1ccccc1Br)C1=C(COC1=O)N2 (centres undefined) | 100% | 8% | 90% | 57% | 
Cc1n[nH]c2c1C(c1ccsc1)C1=C(COC1=O)N2 (centres undefined) | 100% | 6% | 82% | 98% | 
Cc1n[nH]c2c1C(c1cccc(Cl)c1)C1=C(COC1=O)N2 (centres undefined) | 54% | 28% | 76% | 43% | Fold change (Jurkat [11]): 3; GI50 (HeLa [12]): 10 µM
COc1cc(C2C3=C(COC3=O)Nc3c2c(-c2ccc(Br)cc2)nn3-c2ccccc2)cc(OC)c1OC (centres undefined) | 90% | 2% | 99% | 73% | 
Cc1n[nH]c2c1C(c1cccc(F)c1)C1=C(COC1=O)N2 (centres undefined) | 76% | 28% | 84% | 99% | 
Cc1n[nH]c2c1C(c1cc(Br)c(O)c(Br)c1)C1=C(COC1=O)N2 (centres undefined) | 60% | 53% | 58% | 58% | Fold change (Jurkat [11]): 3; Activity (Lymphocyte): inactive; GI50 (HeLa [12]): 8 µM
Cc1n[nH]c2c1C(c1ccc(Cl)c(Cl)c1)C1=C(COC1=O)N2 (centres undefined) | 56% | 33% | 71% | 88% | 
COc1cc(C2C3=C(COC3=O)Nc3[nH]nc(C)c32)cc(Br)c1OC(C)=O (centres undefined) | 46% | 58% | 36% | 47% | Fold change (Jurkat [11]): 3; Activity (Lymphocyte): inactive; GI50 (HeLa [12]): 4 µM
COc1cc2c(cc1OC)C(c1cc(OC)c(OC)c(OC)c1)C1=C(O)OCC1=N2 (centres undefined) | 58% | 49% | 35% | 53% | GI50 (HeLa [12]): 6 µM
Cc1n[nH]c2c1C(c1ccccc1[N+](=O)[O-])C1=C(COC1=O)N2 (centres undefined) | 99% | 6% | 64% | 71% | 
Cc1n[nH]c2c1C(c1ccc(OC(F)(F)F)cc1)C1=C(COC1=O)N2 (centres undefined) | 84% | 9% | 97% | 97% | 
Cc1n[nH]c2c1C(c1ccc(N(C)C)c(Br)c1)C1=C(COC1=O)N2 (centres undefined) | 59% | 41% | 34% | 55% | Fold change (Jurkat [11]): 3; Activity (Lymphocyte): inactive; GI50 (HeLa [12]): 6 µM
COc1cc(C2C3=C(COC3=O)Nc3[nH]nc(-c4ccc(Br)cc4)c32)cc(OC)c1OC (centres undefined) | 98% | 5% | 78% | 67% | 
Cc1n[nH]c2c1C(c1cccnc1)C1=C(COC1=O)N2 (centres undefined) | 96% | 11% | 88% | 69% | 
